“Also recorded” adds a separate entry of the source.
Target: T1, PIM-1 kinase (Homo sapiens, UniProt P11309)
T1 construct: purchased Cell Signaling Technology Inc., Boston, USA
Assay: In vitro assay for PIM-1 kinase inhibition (PIM-1 Kinase Assay Kit, colorimetric ELISA readout)
Assay type: biochemical
Settings: for PIM-1 kinase inhibition (result in words): increasing concentrations 0.1 to 100 µM, Fig. 1 (1.5 ng PIM-1 kinase) and Fig. 2 (2.5 ng PIM-1 kinase); for % remaining PIM-1 kinase activity: test compound at final concentration 100 µM, normalized to positive control (no test compound) = 100 % activity, 1.5 ng (A-D series) or 2.5 ng (E series) PIM-1 kinase, 200 µM ATP
Description: • Fig. 1: The compounds 1-chloro-5-([1,4]diazepane-1-sulfonyl)-8-propoxy-isoquinoline (compound A), 1-chloro-5-(piperazin-1-sulfonyl)-8-methoxy-isoquinoline (compound B), […] (compound C), and 1-chloro-5-([1,4]diazepane-1-sulfonyl)-6-methoxy-isoquinoline (compound D) are potent PIM kinase inhibitors. In vitro assays of PIM-1 kinase activity (1.5 ng) in the present of increasing concentrations of the compounds A, B, C or D were performed as described within example 5. An assay without additional test compound served as positive control for the assay (pos) and an assay without PIM-1 kinase served as negative assay (neg). […] Each assay result was normalized in comparison to the positive control which was defined as 100 % activity. […] In vitro assays of PIM-1 kinase activity (2.5 ng) in the present of increasing concentrations of the compound E were performed as described within example 5. An assay without additional test compound served as positive control for the assay (pos) and an assay without PIM-1 kinase served as negative assay (neg). […] Each assay result was normalized in comparison to the positive control which was defined as 100 % activity.
The in vitro assay for PIM-1 kinase inhibition was performed using the PIM-1 Kinase Assay Kit (Cell Signaling Technology Inc., Boston, USA) according to the manufacture's instruction. Briefly, 1.5 or 2.5 ng PIM-1 kinase has been dissolved in 50 µl assay buffer (25 mM Tris-Hcl (pH 7.5), 10 mM MgCl2, 5 mM beta-glycerophosphate, 0.1 mM Na3VO4, 2 mM DTT, 200 µM ATP, and 1.5 µM peptide substrate) and test compound has been added to a final concentration in a range of 0.1 to 100 µM. After 30 minutes incubation at ambient temperature the reaction was stopped by adding 50 µl Stop buffer (50 mM EDTA, pH 8) per reaction. An aliquot of 25 µl per reaction was diluted each by 75 µl water and transferred to a 96-well streptavidin-coated plate. After 60 minutes incubation and three times washing with PBS, 100 µl/well primary antibody (Phospho-Bad (Ser112) antibody, 1:1000 diluted in PBS) was added. After further 2 h incubation and three times washing with PBS, an usual colorimetric ELISA assay was performed using a HRP labeled second antibody according to the manufacture's instructions. A PIM kinase reaction without addition of a test compound served as positive control (pos) and an assay without PIM kinase served as negative control (neg). […] The PIM-1 kinase inhibition of the test compounds (1-chloro-5-([1,4]diazepane-1-sulfonyl)-8-propoxy-isoquinoline (compound A), 1-chloro-5-(piperazin-1-sulfonyl)-8-methoxy-isoquinoline (compound B), 1-methyl-5-([1,4]diazepane-1-sulfonyl)-8-methoxy-isoquinoline (compound C), and 1-chloro-5-([1,4]diazepane-1-sulfonyl)-6-methoxy-isoquinoline (compound D)) was measured in a first series of assays, and the one of the compound 5-([1,4]diazepane-1-sulfonyl)-8-methoxy-isoquinoline (compound E) was measured in a second series of assays. Within each series of assays the measured PIM-1 kinase activity was normalized in comparison to the positive control (pos) which was defined as 100 % activity. […] The table below summarizes the percentage of the remaining PIM-1 kinase activity in the presence of the test compounds in a final concentration of 100 µM.

T1 sequence (P11309 whole entry): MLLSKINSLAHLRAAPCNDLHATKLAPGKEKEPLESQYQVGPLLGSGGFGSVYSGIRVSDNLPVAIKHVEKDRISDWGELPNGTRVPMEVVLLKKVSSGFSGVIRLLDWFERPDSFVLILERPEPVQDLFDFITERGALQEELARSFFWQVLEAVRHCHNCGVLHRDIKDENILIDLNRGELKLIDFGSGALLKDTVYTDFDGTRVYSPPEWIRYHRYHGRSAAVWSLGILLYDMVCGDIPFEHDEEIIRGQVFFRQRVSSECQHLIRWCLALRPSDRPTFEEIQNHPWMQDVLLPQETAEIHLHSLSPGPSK

| SMILES | PIM-1 kinase inhibition (result in words) | % remaining PIM-1 kinase activity |
| --- | --- | --- |
| COc1ccc(S(=O)(=O)N2CCNCC2)c2ccnc(Cl)c12 [B, 1-chloro-5-(piperazin-1-sulfonyl)-8-methoxy-isoquinoline] | potent PIM-1 kinase inhibitors; also recorded: potent PIM inhibitory effect | 33% |
| COc1ccc2c(Cl)nccc2c1S(=O)(=O)N1CCCNCC1 [D, 1-chloro-5-([1,4]diazepane-1-sulfonyl)-6-methoxy-isoquinoline] | potent PIM-1 kinase inhibitors; also recorded: potent PIM inhibitory effect | 29% |
| CCCOc1ccc(S(=O)(=O)N2CCCNCC2)c2ccnc(Cl)c12 [Compound A, 1-chloro-5-([1,4]diazepane-1-sulfonyl)-8-propoxy-isoquinoline] | potent PIM-1 kinase inhibitors; also recorded: potent PIM inhibitory effect | 23% |
| COc1ccc(S(=O)(=O)N2CCCNCC2)c2ccnc(Cl)c12 [G, 1-chloro-8-methoxy-Fasudil, reference compound] | very potent PIM-1 inhibitor | 17% |
| COc1ccc(S(=O)(=O)N2CCCNCC2)c2ccnc(C)c12 [C, 1-methyl-5-([1,4]diazepane-1-sulfonyl)-8-methoxy-isoquinoline] | potent PIM-1 kinase inhibitors; also recorded: potent PIM inhibitory effect | 31% |
| COc1ccc(S(=O)(=O)N2CCCNCC2)c2ccncc12 [E, 5-([1,4]diazepane-1-sulfonyl)-8-methoxy-isoquinoline, reference compound] | at most a moderate PIM-1 kinase inhibition; also recorded: only weak PIM inhibitory effect | 46% |
| O=S(=O)(c1cccc2cnccc12)N1CCCNCC1 [F, Fasudil, reference compound] | at the most very weak PIM-1 inhibition | 71% |
